Source: patent US6143780A, “N-arylmethylthioanilide compounds useful for the inhibition of the replication of HIV” (Uniroyal Chemical Company, Inc., priority 1999, dated 2000)
≈ marks a conversion by molar mass, not a printed value. Where “and” joins values, the source holds several entries; their conditions need not be identical. Equal entries are not always repeated. Where two headings read alike, the source gives them in different places.

What was measured:
Assay type in all cases: cell-based
[1] = system: HIV-1/188-His; test: inhibition of syncytium formation in CEM cells, HIV-1 RT mutant 188-His; conditions: Human immunodeficiency virus 1, CCRF-CEM, 96 h, read-out: EC50 188-His
Text: (§1) CEM cells were obtained from the American Tissue Cell Culture Collection (Rockville, Md.) . HIV-1 (IIIB) was originally obtained from the culture supernatant of persistently HIV-1-infected H9 cells and was provided by R. C. Gallo and M. Popovic (National Cancer Institute, National Institutes of Health, Bethesda, Md.).
(§2) The selection and characterization of the HIV-1 RT mutant strains were done as follows: HIV-1/100-Ile ("100-Ile") was selected for resistance against TIBO R82150 as described in Balzarini et al, Virology 192: 246-253 (1993); HIV-1/103-Asn ("103-Asn") was selected for resistance against TIBO R82913 as described in Balzarini et al, Virology 192: 246-253 (1993); HIV-1/106-Ala ("106-Ala") was selected for resistance against nevirapine as described in Balzarini et al, J. Virol. 67: 5353-5359 (1993); HIV-1/Lys-138 ("Lys-138") was selected for resistance against TSAO-m^3T as described in Balzarini et al, Virology 192: 246-253 (1993) and Balzarini et al, Proc. Nat. Acad. Sci. USA 90: 6952-6956 (1993); HIV-1/181-Cys ("181-Cys") was selected for resistance against pyridinone L-697,661 as described in Balzarini et al, Virology 192: 246-253 (1993); and HIV-1/188-His ("188-His") was selected for resistance against HEPT as described in Balzarini et al, Mol. Pharmocol. 44: 694-701 (1993). 188-His was then further converted to HIV-1/188-Leu ("188-Leu") upon further passage in cell culture in the absence of the HEPT. HIV-1/101-Glu ("101-Glu") and HIV-1/190-Glu ("190-Glu") were selected for resistance against the thiocarboxanilide derivative designated as UC38 as described in Balzarini et al, Antiviral Research 27: 219-236 (1995). HIV-1/184-Ile ("184-Ile") was selected for resistance against the combination of 3TC and TSAO-m^3 T as described in Balzarini et al, Molecular Pharm. 49: 882-890 (1996). HIV-1/184-Val ("184-Val") was selected for resistance against 3TC as described in Balzarini et al, Molecular Pharm. 49: 882-890 (1996).
(§3) CEM cells were suspended at ≈300,000 cells per ml of culture medium and infected with approximately 100 CCID50 (CCID50 being the 50% cell culture infective dose) of HIV-1(IIIB) (designated as "WT" in Table 3) or one of the HIV-1 RT mutant strains described above. Then 100 μl of the infected cell suspensions was added to 200 μl microtiter plate wells containing 100 μl of appropriate serial (5-fold) dilutions of the test compounds. The inhibitiory effect of the test compounds on HIV-1 induced syncytium formation in CEM cells was examined microscopically on day 4 post infection. The 50% effective concentration (EC50) was defined as the test compound concentration that inhibits syncytium formation in the HIV-1-infected cell cultures by 50%.

[2] = system: HIV-1/184-Ile; test: inhibition of syncytium formation in CEM cells, HIV-1 RT mutant 184-Ile; conditions: Human immunodeficiency virus 1, CCRF-CEM, 96 h, read-out: EC50 184-IIe
Text: as §1, §2, §3

[3] = system: HIV-1 (IIIB); test: inhibition of HIV-1(IIIB) (WT) induced syncytium formation in CEM cells
Text: as §1, §3

[4] = system: 103-Ala; test: inhibition of syncytium formation in CEM cells, HIV-1 RT mutant 103-Ala; conditions: Human immunodeficiency virus 1, CCRF-CEM, 96 h, read-out: EC50 103-Ala
[5] = system: HIV-1/184-Val; test: inhibition of syncytium formation in CEM cells, HIV-1 RT mutant 184-Val; conditions: Human immunodeficiency virus 1, CCRF-CEM, 96 h, read-out: EC50 184-Val
Text: as §1, §2, §3

[6] = system: HIV-1/101-Glu; test: inhibition of syncytium formation in CEM cells, HIV-1 RT mutant 101-Glu; conditions: Human immunodeficiency virus 1, CCRF-CEM, 96 h, read-out: EC50 101-Glu
Text: as §1, §2, §3

[7] = system: HIV-1/100-Ile; test: inhibition of syncytium formation in CEM cells, HIV-1 RT mutant 100-Ile; conditions: Human immunodeficiency virus 1, CCRF-CEM, 96 h, read-out: EC50 100-Ile
Text: as §1, §2, §3

[8] = system: HIV-1/190-Glu; test: inhibition of syncytium formation in CEM cells, HIV-1 RT mutant 190-Glu; conditions: Human immunodeficiency virus 1, CCRF-CEM, 96 h, read-out: EC50 190-Glu
Text: as §1, §2, §3

[9] = system: 138-Lys; test: inhibition of syncytium formation in CEM cells, HIV-1 RT mutant 138-Lys; conditions: Human immunodeficiency virus 1, CCRF-CEM, 96 h, read-out: EC50 138-Lys
Text: as §1, §2, §3

[10] = system: HIV-1/181-Cys; test: inhibition of syncytium formation in CEM cells, HIV-1 RT mutant 181-Cys; conditions: Human immunodeficiency virus 1, CCRF-CEM, 96 h, read-out: EC50 181-Cys
Text: as §1, §2, §3

[11] = system: HIV-1/188-Leu; test: inhibition of syncytium formation in CEM cells, HIV-1 RT mutant 188-Leu; conditions: Human immunodeficiency virus 1, CCRF-CEM, 96 h, read-out: EC50 188-Leu
Text: as §1, §2, §3

[12] = system: HIV-1/106-Ala; test: inhibition of syncytium formation in CEM cells, HIV-1 RT mutant 106-Ala; conditions: Human immunodeficiency virus 1, CCRF-CEM, 96 h, read-out: EC50 106-Ala
Text: as §1, §2, §3

[13] = Human immunodeficiency virus 1, IIIB, CCRF-CEM, 96 h, Table 3, HIV-1(IIIB), day 4 post infection, read-out: EC50 WT
[14] = Table 2, day 4 post infection, replicate values, read-out: EC50, Activity Against HIV-1 (IIIB)
[15] = Human immunodeficiency virus 1, IIIB, CCRF-CEM, 96 h, Table 2, day 4 post infection, replicate values, read-out: EC50, Activity Against HIV-1 (IIIB)

| SMILES | EC50 [1] [µg/mL] | EC50 [2] [µg/mL] | EC50 [3, 13] [µg/mL] | EC50 [3, 14] | EC50 [4] [µg/mL] | EC50 [5] [µg/mL] | EC50 [6] [µg/mL] | EC50 [7] [µg/mL] | EC50 [8] [µg/mL] | EC50 [9] [µg/mL] | EC50 [10] [µg/mL] | EC50 [11] [µg/mL] | EC50 [12] [µg/mL] | EC50 [3, 15] [nM] |
| --- | --- | --- | --- | --- | --- | --- | --- | --- | --- | --- | --- | --- | --- | --- |
| Cc1occc1C(=S)Nc1ccc(Cl)c(COc2cccc(Cl)c2)c1 [Compound 7] | 0.95 | 0.4 | 0.09 | 68.2 nM and 52.5 nM and 432 nM | ≥ 2 | 0.1 | 2 | 0.65 | ≥ 10 | 0.33 | 0.44 | – | – | – |
| Cc1occc1C(=S)Nc1ccc(Cl)c(COc2cccc([N+](=O)[O-])c2)c1 [Compound 27] | > 2 | 0.11 | 0.03 | 121 nM and 340 nM | > 2 | 0.4 | 0.55 | 0.7 | > 2 | 0.23 | 0.5 | > 2 | 1.57 | – |
| Cc1occc1C(=S)Nc1ccc(Cl)c(COc2ccccc2[N+](=O)[O-])c1 [Compound 19] | 0.12 | 0.0045 | 0.0023 | 39.3 nM | 0.52 (≈ 1.29 µM) | 0.0041 | 0.17 | 0.08 | > 2 | 0.0075 | 0.13 | 1.35 | 0.13 | 27.1 |
| Cc1occc1C(=S)Nc1ccc(Cl)c(COc2ccccc2Cl)c1 [Compound 6, N-3-((2-chlorophenoxy)methyl)-4-chlorophenyl-2-methyl-3-furancarbothioamide] | 0.053 | 0.047 | 0.0067 | 104 nM | 1.2 (≈ 3.06 µM) | 0.018 | 0.11 | 0.23 | > 2 | 0.025 | 0.09 | – | – | 58.6 |
| COc1ccccc1OCc1cc(NC(=S)c2ccoc2C)ccc1Cl [Compound 22] | 0.85 | 0.025 | 0.011 | 209 nM | 2.73 (≈ 7.04 µM) | 0.018 | 0.75 | 0.4 | > 2 | 0.075 | 0.41 | > 2 | 1 | 160 |
| Cc1occc1C(=S)Nc1ccc(Cl)c(COc2ccccc2Br)c1 [Compound 40] | 0.4 | 0.04 | 0.02 | 35.3 nM and 46 nM and 16.8 nM | > 2 | 0.018 | 0.4 | 1.73 | > 2 | 0.09 | 0.75 | 0.7 | 0.85 | – |
| Cc1occc1C(=S)Nc1ccc(Cl)c(COc2ccccc2C(F)(F)F)c1 [Compound 46] | 0.16 | 0.018 | 0.0041 | 39.3 nM and 54.8 nM and 9.14 nM | 0.55 (≈ 1.29 µM) | 0.0093 | 0.18 | 0.11 | > 2 | 0.03 | 0.5 | 0.19 | 0.47 | – |
| Cc1occc1C(=S)Nc1ccc(Cl)c(COc2c(F)cccc2F)c1 [Compound 16] | 0.52 | 0.011 | 0.0031 | 39.2 nM | 0.6 (≈ 1.52 µM) | 0.0036 | 0.069 | 0.08 | > 2 | 0.018 | 0.03 | 0.95 | 0.03 | 28.6 |
| Cc1ccccc1OCc1cc(NC(=S)c2ccoc2C)ccc1Cl [Compound 8] | 0.5 | 0.065 | 0.022 | – | 2 (≈ 5.38 µM) | 0.02 | 1.5 | 0.33 | ≥ 2 | 0.19 | 0.95 | 0.7 | 1 | 107 |
| Cc1occc1C(=S)Nc1ccc(Cl)c(COc2ccc(F)cc2Cl)c1 [Compound 47] | 2 | 0.12 | 0.018 | 516 nM | > 2 | 0.05 | 1.47 | 0.65 | > 2 | 0.64 | 1 | > 2 | > 2 | 1030 |
| Cc1occc1C(=S)Nc1ccc(Cl)c(COc2ccccc2C#N)c1 [Compound 30] | 0.35 | 0.03 | 0.006 | 68.7 nM and 103 nM | > 2 | 0.021 | 0.63 | 0.33 | > 2 | 0.042 | 0.65 | 0.85 | 0.7 | 63.5 |
| Cc1occc1C(=S)Nc1ccc(Cl)c(COc2ccccc2F)c1 [Compound 18] | 1.73 | 0.032 | 0.0053 | 111 nM | > 2 | 0.008 | 0.24 | 0.077 | > 2 | 0.53 | 0.1 | > 2 | 1.1 | 117 |
| COc1cccc(F)c1OCc1cc(NC(=S)c2ccoc2C)ccc1Cl [Compound 34] | 0.5 | 0.0087 | 0.0022 | 5.65 nM and 17.4 nM | 0.85 (≈ 2.09 µM) | 0.005 | 0.12 | 0.16 | > 2 | 0.02 | 0.1 | 0.53 | 0.1 | – |
| CCc1ccccc1OCc1cc(NC(=S)c2ccoc2C)ccc1Cl [Compound 44] | 0.25 | 0.04 | 0.0065 | 30.7 nM and 18 nM and 95.4 nM | > 2 | 0.018 | 0.65 | 0.41 | > 2 | 0.16 | > 2 | 0.35 | 1.1 | – |
| Cc1occc1C(=S)Nc1ccc(Cl)c(COc2cccc(C(F)(F)F)c2)c1 [Compound 5] | > 2 | > 2 | 0.5 | 4110 nM and 3840 nM | > 2 | 0.93 | > 2 | > 2 | > 2 | 1.73 | 0.33 | – | – | 3880 |
